The record followed here is ChEMBL document CHEMBL1764964, “Extending SAR of bile acids as FXR ligands: discovery of 23-N-(carbocinnamyloxy)-3α,7α-dihydroxy-6α-ethyl-24-nor-5β-cholan-23-amine” (Bioorg Med Chem, 2011).

Calls of active or inactive are those of the source. The calls are words filed in the database; no cut-off is given here. Some results are limits rather than exact numbers.

The target in assay [1] is T1, G-protein coupled bile acid receptor 1 (Homo sapiens, UniProt Q8TDU6).
T1 sequence (Q8TDU6 whole entry): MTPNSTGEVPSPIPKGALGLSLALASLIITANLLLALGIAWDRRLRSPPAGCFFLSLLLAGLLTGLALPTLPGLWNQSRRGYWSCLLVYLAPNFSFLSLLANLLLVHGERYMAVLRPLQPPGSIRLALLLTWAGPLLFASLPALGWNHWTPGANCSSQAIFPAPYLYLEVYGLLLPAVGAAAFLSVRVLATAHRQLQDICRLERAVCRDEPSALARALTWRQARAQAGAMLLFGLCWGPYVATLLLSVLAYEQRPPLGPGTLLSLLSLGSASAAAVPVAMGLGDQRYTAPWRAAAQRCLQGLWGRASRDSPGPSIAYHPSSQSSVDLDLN
The experiment in a line: Agonist activity at human TGR5 receptor expressed in NCI-H716 cells assessed as intracellular cAMP level by TR-FRET assay. Format: functional, cell-based.

The target of assay [2] is T2, Bile acid receptor (Homo sapiens) (UniProt Q96RI1).
T2 sequence (whole entry): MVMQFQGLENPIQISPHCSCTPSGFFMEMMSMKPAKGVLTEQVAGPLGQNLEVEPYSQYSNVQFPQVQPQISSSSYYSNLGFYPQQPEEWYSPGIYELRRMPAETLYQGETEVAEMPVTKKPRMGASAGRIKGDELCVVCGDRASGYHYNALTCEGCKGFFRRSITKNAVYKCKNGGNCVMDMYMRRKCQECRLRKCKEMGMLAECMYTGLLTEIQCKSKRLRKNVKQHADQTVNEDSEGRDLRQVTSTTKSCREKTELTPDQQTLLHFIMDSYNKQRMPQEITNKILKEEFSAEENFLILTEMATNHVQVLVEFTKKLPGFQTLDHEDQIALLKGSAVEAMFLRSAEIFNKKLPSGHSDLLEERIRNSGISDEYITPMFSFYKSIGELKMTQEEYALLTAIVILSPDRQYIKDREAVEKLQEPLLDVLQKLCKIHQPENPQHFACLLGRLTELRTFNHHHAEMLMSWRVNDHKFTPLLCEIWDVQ
The experiment in a line: Agonist activity at human FXR expressed in HepG2 cells assessed as renilla luciferase activity at 1 uM by luciferase based transactivation assay. It is filed as functional, cell-based.

The target of assay [3] is T2, Bile acid receptor (Homo sapiens). Briefly: Agonist activity at human GST-fused FXR LBD assessed as coactivator interaction with receptor ligand binding domain by Alphascreen assay relative to CDCA. In general terms: Bead proximity is the source of the signal in Alpha formats.
Assay [4] deals with T3, Bile acid receptor (Homo sapiens, UniProt Q96RI1).
T3 sequence (Q96RI1 whole entry): T2 sequence (whole entry)
The experiment in a line: Agonist activity at human GST-fused FXR LBD assessed as coactivator interaction with receptor ligand binding domain by Alphascreen assay.

The target in assay [5] is T2, Bile acid receptor (Homo sapiens). Briefly: Agonist activity at human FXR expressed in HepG2 cells assessed as renilla luciferase activity at 20 uM by luciferase based transactivation assay. Format: functional, cell-based.

What is called EC50 is the midpoint of the concentration-response curve. Turning to `CC[C@H]1[C@@H](O)[C@@H]2[C@H](CC[C@]3(C)[C@@H]([C@H](C)CCNC(=O)OC/C=C/c4ccccc4)CC[C@@H]23)[C@@]2(C)CC[C@@H](O)C[C@@H]12`, the EC50 in assay [1] was determined as 55000 nM; in assay [4], 150 nM. Moreover, the outcome in assay [2] was Active. Moreover, in assay [3], the Efficacy was determined as 290%.

As for `C[C@H](CCNC(=O)OC/C=C/c1ccccc1)C1CC[C@H]2[C@@H]3[C@H](O)CC4C[C@H](O)CC[C@]4(C)[C@H]3CC[C@]12C` (stereo partly drawn), the EC50 in assay [1] was above 100000 nM; in assay [4], 900 nM. Also, the outcome in assay [5] was Active. The Efficacy in assay [3] came to 55%.
